Measurements taken from PMC3362486 (Chemico-Biological Interactions, 2012).

Experiments:
CYP2A6 [1] = target: T1, CYP2A6 (Homo sapiens, UniProt P11509); assay: biochemical; type: biochemical
T1 sequence (P11509 1-494): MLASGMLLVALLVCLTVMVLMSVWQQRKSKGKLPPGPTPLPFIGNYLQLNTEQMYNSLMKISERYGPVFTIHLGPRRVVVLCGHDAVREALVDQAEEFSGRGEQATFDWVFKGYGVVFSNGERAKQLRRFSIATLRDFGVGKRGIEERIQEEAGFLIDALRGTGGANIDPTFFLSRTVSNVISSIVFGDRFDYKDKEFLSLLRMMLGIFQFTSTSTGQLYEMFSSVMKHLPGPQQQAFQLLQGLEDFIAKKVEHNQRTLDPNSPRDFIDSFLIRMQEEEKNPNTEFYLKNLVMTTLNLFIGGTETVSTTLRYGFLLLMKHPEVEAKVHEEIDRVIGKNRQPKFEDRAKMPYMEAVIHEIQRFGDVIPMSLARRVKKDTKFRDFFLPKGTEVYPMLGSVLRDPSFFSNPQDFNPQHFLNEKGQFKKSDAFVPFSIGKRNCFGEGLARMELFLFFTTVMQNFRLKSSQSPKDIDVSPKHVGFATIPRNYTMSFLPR

CYP2A13 [2] = target: T2, CYP2A13 (Homo sapiens, UniProt Q16696); assay: biochemical
T2 sequence (Q16696 1-494): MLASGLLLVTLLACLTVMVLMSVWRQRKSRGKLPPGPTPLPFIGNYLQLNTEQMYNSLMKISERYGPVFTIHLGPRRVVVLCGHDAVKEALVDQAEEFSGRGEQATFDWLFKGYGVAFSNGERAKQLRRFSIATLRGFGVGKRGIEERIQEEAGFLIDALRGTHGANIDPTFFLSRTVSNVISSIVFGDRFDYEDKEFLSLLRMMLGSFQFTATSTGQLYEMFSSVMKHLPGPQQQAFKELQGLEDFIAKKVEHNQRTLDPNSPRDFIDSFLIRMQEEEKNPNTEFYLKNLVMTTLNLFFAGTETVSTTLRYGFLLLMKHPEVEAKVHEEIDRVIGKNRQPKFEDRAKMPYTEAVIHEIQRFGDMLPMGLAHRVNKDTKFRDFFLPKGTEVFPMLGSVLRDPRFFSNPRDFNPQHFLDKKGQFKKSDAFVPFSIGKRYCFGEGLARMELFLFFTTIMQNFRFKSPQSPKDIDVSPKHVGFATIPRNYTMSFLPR

CYP2A6 [3] = target: T1, CYP2A6; type: biochemical
CYP2A13 [4] = target: T2, CYP2A13; assay: in vitro; type: biochemical; conditions: for activity at 10 min, 20 µM: human, pH 7.4, probe coumarin (7-hydroxylation), 20 μM in the secondary reaction
CYP2A6 [5] = target: T1, CYP2A6; assay: Effect of NADPH and trapping agents; type: biochemical; conditions: for Percent Activity Remaining (10 min relative to 0 min): menthofuran 5 μM or β-nicotyrine 20 μM
CYP2A6 [6] = target: T1, CYP2A6; assay: CYP2A6 inactivation kinetics and partition ratio; type: biochemical
CYP2A6 [7] = target: T1, CYP2A6; assay: Irreversibility of CYP2A6 inactivation; type: biochemical
CYP2A6 [8] = target: T1, CYP2A6; conditions: cited from earlier work
CYP2A13 [9] = target: T2, CYP2A13; conditions: cited from earlier work

Row | Compound | Ki (CYP2A6 [1]) | Ki (CYP2A13 [2]) | Loss of CYP2A6 coumarin 7-hydroxylation activity (CYP2A6 [3]; inhibitor 20 μM, in the presence of NADPH) | activity at 10 min, 20 µM (CYP2A13 [4]) | Loss of CYP2A13 activity (CYP2A13 [4]; inhibitor 20 μM with NADPH) | Loss of CYP2A13-catalyzed coumarin 7-hydroxylation at higher concentration (CYP2A13 [4]; menthofuran 200 μM or 30 min incubations, data not shown) | Percent Activity Remaining (10 min relative to 0 min) (CYP2A6 [5]; inhibitor + NADPH + glutathione (10mM)) | Percent Activity Remaining (10 min relative to 0 min) (CYP2A6 [5]; inhibitor + NADPH + semicarbazide (10mM)) | Percent Activity Remaining (10 min relative to 0 min) (CYP2A6 [5]; inhibitor + NADPH) | Loss of CYP2A6 enzyme activity (CYP2A6 [5]; menthofuran 5 μM or β-nicotyrine 20 μM with NADPH, 10 min) | KI for inactivation of CYP2A6, fold lower than that of β-nicotyrine (CYP2A6 [6]) | Partition ratio, times higher than for β-nicotyrine-mediated inactivation (CYP2A6 [6]; calculated partition ratio) | Reversibility of CYP2A6 inactivation upon removal of unbound small molecules (CYP2A6 [7]) | Inhibition of CYP2A6, times less potent than menthofuran and β-nicotyrine (CYP2A6 [1]; comparison of KI values) | Inactivation of CYP2A6 (in words) (CYP2A6 [3]; inhibitor 20 μM with NADPH) | Inactivation of CYP2A13 (in words) (CYP2A13 [4]; inhibitor 20 μM with NADPH) | Inhibition of CYP2A6 (in words) (CYP2A6 [8]) | Catalytic efficiency (kcat/Km) of metabolic activation, CYP2A13 versus CYP 2A6 (CYP2A13 [9])
1 | Cc1coc2c1CC[C@@H](C)C2 [Menthofuran, 3,6R-dimethyl-4,5,6,7-tetrahydro-1-benzofuran] | 0.29 ± 0.05 µM | 1.24 ± 0.26 µM | 95% | 91 ± 5% | no significant loss | no loss | 48% | 40% | 43% | about 60% | ~50 fold | ~ 3.5 times | not reversible | – | – | – | – | –
2 | CC(C)[C@@H]1CC[C@@H](C)C[C@H]1O [Menthol, (1R,2S,5R)-2-isopropyl-5-methylcyclohexanol] | 110 ± 10.7 µM | – | – | 87 ± 11% | – | – | – | – | – | – | – | – | – | 100 times | no indication | no indication | weak inhibitor | –
3 | CN(CCCC(=O)c1cccnc1)N=O [NNK, 4-(methylnitrosamino)-1-(3-pyridyl)-1-butanone] | – | – | – | – | – | – | – | – | – | – | – | – | – | – | – | – | – | 200 fold
